Assay results as given in ChEMBL document CHEMBL3217656, “Identification of a potent salicylic acid-based inhibitor of tyrosine phosphatase PTP1B” (Medchemcomm, 2013).
Activity calls are given as the source filed them. The rule behind the calls is not given here.

What was measured:
[1] = biological target: T1, Papain (Carica papaya) (UniProt P00784); test: Inhibition of papaya papain assessed as Z-Phe-Arg-pNA hydrolysis at 10 uM by fluorometric kinetic-based assay
T1 sequence (whole entry): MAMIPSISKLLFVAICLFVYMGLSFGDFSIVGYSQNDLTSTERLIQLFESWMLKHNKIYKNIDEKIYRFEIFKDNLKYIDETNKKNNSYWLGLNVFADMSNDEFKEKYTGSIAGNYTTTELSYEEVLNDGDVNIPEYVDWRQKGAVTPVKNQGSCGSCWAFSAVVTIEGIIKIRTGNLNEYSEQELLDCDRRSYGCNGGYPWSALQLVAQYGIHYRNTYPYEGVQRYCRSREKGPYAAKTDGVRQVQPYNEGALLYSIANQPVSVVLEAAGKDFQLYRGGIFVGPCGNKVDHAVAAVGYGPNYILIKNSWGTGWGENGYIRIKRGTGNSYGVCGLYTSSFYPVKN

[2] = biological target: T2, Dual specificity protein phosphatase 22 (Homo sapiens, UniProt Q9NRW4); test: Inhibition of human GST-tagged full length MKPX assessed as DiFMUP hydrolysis by fluorometric kinetic-based assay
T2 sequence (Q9NRW4 whole entry): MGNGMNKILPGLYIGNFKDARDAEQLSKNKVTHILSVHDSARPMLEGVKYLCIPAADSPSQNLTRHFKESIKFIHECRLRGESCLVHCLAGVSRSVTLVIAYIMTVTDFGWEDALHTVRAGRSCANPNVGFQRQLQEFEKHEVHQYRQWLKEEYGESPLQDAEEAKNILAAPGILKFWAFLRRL

[3] = biological target: T3, Tyrosine-protein phosphatase non-receptor type 1 (Homo sapiens, UniProt P18031); test: Competitive inhibition of human GST-tagged PTP1B catalytic domain assessed as rate of DiFMUP hydrolysis by lineweaver-burk plot analysis
T3 sequence (P18031 whole entry): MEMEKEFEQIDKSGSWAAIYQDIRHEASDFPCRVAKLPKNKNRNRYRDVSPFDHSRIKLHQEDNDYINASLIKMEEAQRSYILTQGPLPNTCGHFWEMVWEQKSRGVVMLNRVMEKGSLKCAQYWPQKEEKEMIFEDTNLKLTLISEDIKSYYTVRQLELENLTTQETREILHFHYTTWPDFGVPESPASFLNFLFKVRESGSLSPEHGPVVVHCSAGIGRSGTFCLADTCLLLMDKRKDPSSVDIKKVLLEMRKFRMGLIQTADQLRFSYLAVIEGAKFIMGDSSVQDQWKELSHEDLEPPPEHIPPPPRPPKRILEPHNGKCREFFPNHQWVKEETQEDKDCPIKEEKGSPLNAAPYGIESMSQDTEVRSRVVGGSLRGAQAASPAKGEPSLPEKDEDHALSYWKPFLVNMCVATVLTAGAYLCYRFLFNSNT

[4] = biological target: T4, Receptor-type tyrosine-protein phosphatase S (Homo sapiens, UniProt Q13332); test: Inhibition of human GST-tagged PTP-sigma D1D2 domain assessed as DiFMUP hydrolysis by fluorometric kinetic-based assay
T4 sequence (Q13332 whole entry, the tested form may be a part): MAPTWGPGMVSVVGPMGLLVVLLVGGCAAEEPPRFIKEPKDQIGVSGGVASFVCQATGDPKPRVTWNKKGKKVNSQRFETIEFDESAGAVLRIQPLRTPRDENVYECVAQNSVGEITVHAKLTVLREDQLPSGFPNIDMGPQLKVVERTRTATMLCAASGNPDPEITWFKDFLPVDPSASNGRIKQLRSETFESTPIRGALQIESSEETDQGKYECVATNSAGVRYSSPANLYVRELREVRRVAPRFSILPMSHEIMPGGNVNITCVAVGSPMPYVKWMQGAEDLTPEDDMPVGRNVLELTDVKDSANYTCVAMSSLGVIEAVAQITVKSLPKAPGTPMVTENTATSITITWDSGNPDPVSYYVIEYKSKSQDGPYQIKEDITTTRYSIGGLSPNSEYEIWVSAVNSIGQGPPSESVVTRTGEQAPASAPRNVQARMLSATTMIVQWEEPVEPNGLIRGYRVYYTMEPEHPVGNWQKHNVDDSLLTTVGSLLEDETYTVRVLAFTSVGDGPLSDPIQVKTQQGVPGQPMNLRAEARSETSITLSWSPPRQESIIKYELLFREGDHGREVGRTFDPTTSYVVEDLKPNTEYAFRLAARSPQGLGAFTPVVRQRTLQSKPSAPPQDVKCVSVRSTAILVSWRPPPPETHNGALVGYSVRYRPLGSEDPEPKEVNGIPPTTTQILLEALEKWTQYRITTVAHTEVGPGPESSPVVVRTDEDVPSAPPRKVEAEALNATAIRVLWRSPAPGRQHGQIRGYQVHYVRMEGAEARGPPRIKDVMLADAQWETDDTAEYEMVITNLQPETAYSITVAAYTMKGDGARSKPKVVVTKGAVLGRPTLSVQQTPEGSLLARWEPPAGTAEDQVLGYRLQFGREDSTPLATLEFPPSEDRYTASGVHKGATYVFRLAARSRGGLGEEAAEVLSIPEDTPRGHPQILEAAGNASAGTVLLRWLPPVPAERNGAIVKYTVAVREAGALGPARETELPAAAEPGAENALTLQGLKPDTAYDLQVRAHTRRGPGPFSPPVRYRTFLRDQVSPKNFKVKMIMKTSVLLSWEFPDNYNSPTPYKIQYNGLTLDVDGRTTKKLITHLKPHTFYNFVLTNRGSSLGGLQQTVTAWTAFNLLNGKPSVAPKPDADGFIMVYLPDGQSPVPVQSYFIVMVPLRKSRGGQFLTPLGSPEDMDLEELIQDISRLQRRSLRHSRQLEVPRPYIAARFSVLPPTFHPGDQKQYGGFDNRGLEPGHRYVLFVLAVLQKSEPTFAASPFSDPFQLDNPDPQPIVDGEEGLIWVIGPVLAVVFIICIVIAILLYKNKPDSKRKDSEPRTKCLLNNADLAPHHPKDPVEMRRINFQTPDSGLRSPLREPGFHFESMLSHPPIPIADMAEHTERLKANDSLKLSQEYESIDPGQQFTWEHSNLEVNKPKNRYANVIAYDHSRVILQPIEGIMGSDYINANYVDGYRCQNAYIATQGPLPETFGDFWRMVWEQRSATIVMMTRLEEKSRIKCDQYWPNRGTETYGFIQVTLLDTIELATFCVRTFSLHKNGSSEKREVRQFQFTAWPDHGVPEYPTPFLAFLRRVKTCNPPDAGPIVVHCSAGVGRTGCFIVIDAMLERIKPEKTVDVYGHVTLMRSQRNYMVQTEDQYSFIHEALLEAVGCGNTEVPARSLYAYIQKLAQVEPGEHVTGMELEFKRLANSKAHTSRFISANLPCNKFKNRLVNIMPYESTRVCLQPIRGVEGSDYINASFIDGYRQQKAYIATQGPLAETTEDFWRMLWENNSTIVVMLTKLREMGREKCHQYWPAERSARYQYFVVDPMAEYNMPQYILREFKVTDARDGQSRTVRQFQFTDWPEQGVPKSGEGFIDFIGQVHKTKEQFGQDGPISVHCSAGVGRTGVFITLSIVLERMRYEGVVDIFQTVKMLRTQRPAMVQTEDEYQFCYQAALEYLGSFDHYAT

[5] = species on record: Homo sapiens; test: Inhibition of human GST-tagged PRL2 A/S active mutant assessed as DiFMUP hydrolysis at 10 uM by fluorometric kinetic-based assay
[6] = biological target: T5, Tyrosine-protein phosphatase non-receptor type 2 (Homo sapiens, UniProt P17706); test: Inhibition of human GST-tagged TC-PTP catalytic domain assessed as DiFMUP hydrolysis by fluorometric kinetic-based assay
T5 sequence (P17706 whole entry): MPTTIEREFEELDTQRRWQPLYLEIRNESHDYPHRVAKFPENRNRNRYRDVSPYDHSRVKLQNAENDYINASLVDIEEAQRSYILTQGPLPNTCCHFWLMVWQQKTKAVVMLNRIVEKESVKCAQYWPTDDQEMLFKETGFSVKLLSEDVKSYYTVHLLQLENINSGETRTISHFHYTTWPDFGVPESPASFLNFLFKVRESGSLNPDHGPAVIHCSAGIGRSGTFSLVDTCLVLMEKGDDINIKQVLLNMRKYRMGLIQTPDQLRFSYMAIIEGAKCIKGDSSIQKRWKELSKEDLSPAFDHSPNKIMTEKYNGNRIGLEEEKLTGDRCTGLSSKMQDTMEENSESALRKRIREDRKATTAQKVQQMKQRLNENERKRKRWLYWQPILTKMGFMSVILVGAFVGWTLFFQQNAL

[7] = biological target: T6, Tyrosine-protein phosphatase non-receptor type 2 (Homo sapiens) (UniProt P17706); test: Inhibition of human GST-tagged TC-PTP catalytic domain assessed as DiFMUP hydrolysis at 10 uM by fluorometric kinetic-based assay
T6 sequence (whole entry): T5 sequence (P17706 whole entry)

[8] = biological target: Receptor-type tyrosine-protein phosphatase F (Homo sapiens) (UniProt P10586); test: Inhibition of human GST-tagged PTP-LAR D1D2 domain assessed as DiFMUP hydrolysis by fluorometric kinetic-based assay
Chain of Receptor-type tyrosine-protein phosphatase F (Homo sapiens) (P10586 whole entry, the tested form may be a part): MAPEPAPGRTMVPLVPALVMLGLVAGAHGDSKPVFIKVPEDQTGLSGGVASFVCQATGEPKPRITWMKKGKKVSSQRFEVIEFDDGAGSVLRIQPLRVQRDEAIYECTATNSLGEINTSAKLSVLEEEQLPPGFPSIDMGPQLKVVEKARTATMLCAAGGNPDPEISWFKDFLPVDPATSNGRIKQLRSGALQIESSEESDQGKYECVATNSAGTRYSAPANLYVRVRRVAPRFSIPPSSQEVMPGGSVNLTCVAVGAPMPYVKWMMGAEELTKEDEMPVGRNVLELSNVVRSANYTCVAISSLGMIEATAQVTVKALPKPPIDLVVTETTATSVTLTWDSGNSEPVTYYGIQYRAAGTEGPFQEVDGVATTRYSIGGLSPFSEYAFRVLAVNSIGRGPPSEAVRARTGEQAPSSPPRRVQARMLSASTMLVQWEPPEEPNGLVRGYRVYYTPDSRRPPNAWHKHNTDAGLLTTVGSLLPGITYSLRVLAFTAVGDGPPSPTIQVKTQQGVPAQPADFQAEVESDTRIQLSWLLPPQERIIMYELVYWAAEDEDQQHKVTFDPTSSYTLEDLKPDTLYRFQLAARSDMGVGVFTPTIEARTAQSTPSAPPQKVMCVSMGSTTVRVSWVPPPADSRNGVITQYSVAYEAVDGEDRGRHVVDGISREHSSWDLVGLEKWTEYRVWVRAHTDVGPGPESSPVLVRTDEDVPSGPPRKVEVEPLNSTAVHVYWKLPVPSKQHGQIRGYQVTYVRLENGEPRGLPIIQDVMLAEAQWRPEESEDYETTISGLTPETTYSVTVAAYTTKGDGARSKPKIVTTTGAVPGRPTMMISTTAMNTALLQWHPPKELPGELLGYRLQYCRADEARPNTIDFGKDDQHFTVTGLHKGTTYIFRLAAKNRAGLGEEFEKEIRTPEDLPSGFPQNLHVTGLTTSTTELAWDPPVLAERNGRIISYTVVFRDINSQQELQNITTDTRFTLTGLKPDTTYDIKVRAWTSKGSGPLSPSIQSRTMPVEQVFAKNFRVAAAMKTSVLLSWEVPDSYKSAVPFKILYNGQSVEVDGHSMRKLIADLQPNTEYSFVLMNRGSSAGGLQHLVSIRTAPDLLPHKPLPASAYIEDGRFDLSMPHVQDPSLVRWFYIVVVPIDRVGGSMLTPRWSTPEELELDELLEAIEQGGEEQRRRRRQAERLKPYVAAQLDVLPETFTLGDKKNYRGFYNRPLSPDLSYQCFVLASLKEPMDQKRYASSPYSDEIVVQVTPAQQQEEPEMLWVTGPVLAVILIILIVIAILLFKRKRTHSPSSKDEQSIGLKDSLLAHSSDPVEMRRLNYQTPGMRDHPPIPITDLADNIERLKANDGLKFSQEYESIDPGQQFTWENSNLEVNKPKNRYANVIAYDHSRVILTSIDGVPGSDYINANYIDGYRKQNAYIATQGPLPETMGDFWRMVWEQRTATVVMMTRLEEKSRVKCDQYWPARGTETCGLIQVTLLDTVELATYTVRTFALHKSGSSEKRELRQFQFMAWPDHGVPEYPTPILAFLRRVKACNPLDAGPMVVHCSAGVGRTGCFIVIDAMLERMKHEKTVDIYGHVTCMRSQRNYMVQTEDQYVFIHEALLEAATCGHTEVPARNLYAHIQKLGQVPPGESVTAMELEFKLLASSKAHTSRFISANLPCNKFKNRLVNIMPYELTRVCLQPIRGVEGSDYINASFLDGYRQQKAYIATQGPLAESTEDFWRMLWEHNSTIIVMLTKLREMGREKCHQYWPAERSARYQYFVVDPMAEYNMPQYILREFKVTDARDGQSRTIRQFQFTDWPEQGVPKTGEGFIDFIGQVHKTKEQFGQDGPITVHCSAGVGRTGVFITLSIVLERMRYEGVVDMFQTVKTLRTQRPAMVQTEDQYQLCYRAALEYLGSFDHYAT

[9] = Inhibition of human GST-tagged PRL2 A/S active mutant assessed as DiFMUP hydrolysis by fluorometric kinetic-based assay
[10] = test system: CHO; test: Cytotoxicity against Chinese hamster CHO cells overexpressing IR assessed as slight reduction in cell viability at >50 uM by xCELLigence system; type: cell-based, Cricetulus griseus
[11] = test system: CHO; test: Inhibition of PTP1B in Chinese hamster CHO cells overexpressing IR assessed as insulin-stimulated IR phosphorylation treated for 3 hrs prior to insulin stimulation for 15 mins by western blot analysis; type: cell-based; details: Cricetulus griseus
[12] = biological target: T7, Dual specificity protein phosphatase 22 (Homo sapiens) (UniProt Q9NRW4); test: Inhibition of human GST-tagged full length MKPX assessed as DiFMUP hydrolysis at 10 uM by fluorometric kinetic-based assay
T7 sequence (whole entry): T2 sequence (Q9NRW4 whole entry)

[13] = biological target: T8, Tyrosine-protein phosphatase non-receptor type 1 (Homo sapiens) (UniProt P18031); test: Inhibition of human GST-tagged PTP1B catalytic domain assessed as DiFMUP hydrolysis at 10 uM by fluorometric kinetic-based assay
T8 sequence (whole entry): T3 sequence (P18031 whole entry)

[14] = biological target: T4, Receptor-type tyrosine-protein phosphatase S; test: Inhibition of human GST-tagged PTP-sigma D1D2 domain assessed as DiFMUP hydrolysis at 10 uM by fluorometric kinetic-based assay
[15] = test system: CHO; test: Cytotoxicity against Chinese hamster CHO cells overexpressing IR assessed as cell proliferation rate at 0.4 to 10 uM by xCELLigence system; type: cell-based, Cricetulus griseus
[16] = biological target: T9, Papain (Carica papaya, UniProt P00784); test: Inhibition of papaya papain assessed as Z-Phe-Arg-pNA hydrolysis by fluorometric kinetic-based assay
T9 sequence (P00784 whole entry): T1 sequence (whole entry)

[17] = biological target: Receptor-type tyrosine-protein phosphatase F (Homo sapiens) (UniProt P10586); test: Inhibition of human GST-tagged PTP-LAR D1D2 domain assessed as DiFMUP hydrolysis at 10 uM by fluorometric kinetic-based assay
[18] = biological target: T3, Tyrosine-protein phosphatase non-receptor type 1; test: Inhibition of human GST-tagged PTP1B catalytic domain assessed as DiFMUP hydrolysis by fluorometric kinetic-based assay
[19] = biological target: T8, Tyrosine-protein phosphatase non-receptor type 1 (Homo sapiens); test: Mixed inhibition of human GST-tagged PTP1B catalytic domain assessed as rate of DiFMUP hydrolysis by lineweaver-burk plot analysis
[20] = biological target: T3, Tyrosine-protein phosphatase non-receptor type 1; test: Inhibition of PTP1B (unknown origin) expressed in Escherichia coli cells assessed as p-nitrophenyl phosphate hydrolysis by spectrophotometric analysis
[21] = biological target: T5, Tyrosine-protein phosphatase non-receptor type 2; test: Inhibition of TC-PTP (unknown origin) expressed in Escherichia coli cells assessed as p-nitrophenyl phosphate hydrolysis by spectrophotometric analysis
[22] = test system: CHO; test: Cytotoxicity against Chinese hamster CHO cells overexpressing IR assessed as cell proliferation rate at 50 uM by xCELLigence system; type: cell-based, Cricetulus griseus

Structure (SMILES)	inhibition [1]	IC50 [2] [µM]	IC50 [4] [µM]	inhibition [5]	IC50 [6] [µM]	inhibition [7] [%]	inhibition [8]	IC50 [9] [µM]	inhibition [12]	inhibition [13] [%]	inhibition [14] [%]	IC50 [16] [µM]	inhibition [17]	IC50 [18] [µM]	inhibition [11]	Activity [15]	further results
COC(=O)c1cccc(-c2ccc(-c3ccc(CN(C(=O)CN(C)S(=O)(=O)c4ccc(C)cc4)c4ccc(C(=O)O)c(O)c4)cc3)cc2)c1	inactive	> 10	6.3	inactive	5.6	> 80		> 50	inactive	> 80	> 80	> 10	inactive	4.8			
Cc1ccc(S(=O)(=O)N(C)CC(=O)N(Cc2ccc(-c3ccc(-c4cccc(C(N)=O)c4)cc3)cc2)c2ccc(C(=O)O)c(O)c2)cc1	inactive	> 10	4.6	inactive	4.4	> 80		> 50	inactive	> 80	> 80	> 10	inactive	4.6			
Cc1ccc(S(=O)(=O)N(C)CC(=O)N(Cc2ccc(-c3ccc(-c4cccc(C#N)c4)cc3)cc2)c2ccc(C(=O)O)c(O)c2)cc1	inactive	> 10	6.1	inactive	5.1	> 80		> 50	inactive	> 80	> 80	> 10	inactive	5			
O=C(Cn1cc(-c2c(-c3ccccc3)oc3cc(O)c(C(=O)O)cc23)nn1)Nc1ccc(N2CCOCC2)cc1																	IC50 [20]: 19 µM; IC50 [21]: 22 µM

Now from value to molecule, other results behind:

inhibition [1]	IC50 [2] [µM]	IC50 [4] [µM]	inhibition [5]	IC50 [6] [µM]	inhibition [7] [%]	inhibition [8]	IC50 [9] [µM]	inhibition [12]	inhibition [13] [%]	inhibition [14] [%]	IC50 [16] [µM]	inhibition [17]	IC50 [18] [µM]	Structure (SMILES)	inhibition [11]	Activity [15]	further results
inactive	> 10	3.6	inactive	5.1	> 80	inactive	> 50	inactive	> 80	> 80	> 10	inactive	4.9	CN(C)c1cccc2c(S(=O)(=O)N(C)CC(=O)N(Cc3ccc(C4CCCCC4)cc3)c3ccc(C(=O)O)c(O)c3)cccc12	Dose-dependent effect	Non-toxic	Ki [3]: 4 µM; Activity [10]: Toxic
inactive	> 10	4.3	inactive	4.8	> 80	inactive	> 50	inactive	> 80	> 80	> 10	inactive	6.2	CN(CC(=O)N(Cc1ccc(C2CCCCC2)cc1)c1ccc(C(=O)O)c(O)c1)S(=O)(=O)c1cccc2cccnc12	Dose-dependent effect	Non-toxic	Activity [10]: Toxic; inhibition [19]: Active
inactive	> 10	5.2	inactive	3.9	> 80	inactive	> 50	inactive	> 80	> 80	> 10	inactive	5.2	CN(CC(=O)N(Cc1ccc(C2CCCCC2)cc1)c1ccc(C(=O)O)c(O)c1)S(=O)(=O)c1cccc2ccccc12	Dose-dependent effect	Non-toxic	Ki [3]: 2.1 µM; Activity [22]: Toxic
